Results on seven compounds are retold here after patent US5856506A, “Phosphatase inhibitors and methods of use thereof” (University of Pittsburgh, priority 1997, dated 1999).

In experiment [1] the test system is PP1. Description: Phosphatase activity by [32P] release from phosphorylase-a or phosphohistone (Honkanen method). Type of experiment: biochemical. Conditions: 100 μM inhibitor; none = 100. On the procedure:
(§1) It has been found in accordance with the present invention that compounds of formula I are capable of inhibiting serine/threonine protein phosphatases. Inhibition of serine/threonine protein phosphatases is defined herein as inhibition of the activity of one or more of PP1, PP2A or PP3 at a concentration of 100 μM or less of the inhibitor compound. In a preferred embodiment, the activity of the phosphatase is inhibited by at least 10%. In more preferred embodiments, the activity of the phophatase is inhibited by at least 25%, or even more preferably, by at least 50%. Inhibition of PP1, PP2A or PP3 can be assessed by methods known to one of ordinary skill in the art. Suitable assays are described, for example by Honkanen et al. (1994) Toxicon 32:339 and Honkanen et al. (1990) J. Biol. Chem. 265: 19401, the disclosures of which are incorporated herein by reference. Briefly, phosphatase activity is determined by quantifying the [^32 p] released from a ^32 p-labeled substrate such as phosphohistone or phosphorylase-a. Decreased [^32 p] release in the presence of the compounds of the present invention relative to control samples provides a measure of the ability of the compounds of the invention to inhibit PP1, PP2A or PP3.
(§2) Phosphatase activity and the inhibitory activity of the compounds of Table 1 were determined by the method of Honkanen et al. (1994) Toxicon 32:339. Briefly, phosphatase activity against phosphorylase-a or phosphohistone was 25 determined by the quantification of liberated [^32 p]. Assays, 80 μl total volume, containing 50 mM Tris-HCl, pH 7.4, 0.5 mM DTT, 1 mM EDTA (assay buffer) and [^32 p]phosphoprotein (1-2 μM PO4), were conducted as described previously (Honkanen et al., 1991 Mol. Pharmac. 40:577). Dephosphorylation reactions were routinely conducted for 5-10 min. using phosphorylase-a as a substrate and for 10-20 min. using phosphohistone. In all assays the dephosphorylation of substrate was kept to less than 10% of the total phosphorylated substrate available, and the reactions were adjusted to ensure that enzyme activity was linear with respect to enzyme concentration and time. [^32 p]Phosphate liberated by the enzymes was extracted as a phosphomolybdate complex and measured according to the methods of Killilea et al. (1978) Arch. Biochem. Biophys. 191:638. Inhibition of protein phosphatase activity by inhibitors was determined by adding the 100 μM of inhibitors to the enzyme mixture 5-10 min. prior to initiating the reaction with the addition of substrate.

The target in experiment [2] is PP2A (Bos taurus, UniProt P67774). Described as above. The format is biochemical. Conditions: 100 μM inhibitor; none = 100; read-out: PP2A, percent inhibition relative to control (100%). On the procedure:
as §1, §2

Experiment [3] deals with PP3. The experiment is described as above. Type of experiment: biochemical. Conditions: 100 μM inhibitor; none = 100. On the procedure: as §1, §2
The target in experiment [4] is T1, catalytic subunit of bovine cardiac muscle PP2A (Bos taurus, UniProt P67774).
T1 construct: purchased Gibco-BRL, Gaithersburg, Md; host or cells: bovine cardiac muscle
Description: PP2A activity with fluorescein diphosphate substrate in 96-well plates. Type of experiment: biochemical. Conditions: FIG. 6. On the procedure: FIG. 6 is a graph of inhibition of PP2A activity by compound 1d. The catalytic subunit of PP2A was incubated with vehicle alone (control), calyculin A (10 nM) or compound 1d (100 uM), and the dephosphorylation of the substrate fluorescein diphosphate determined spectro-photometrically. Mean results of two independent experiments are shown; bars indicate the range.
In another suitable assay, the ability of the compounds of the present invention to inhibit the activity of protein phosphatase PP2A is assessed. The activity of the catalytic subunit of bovine cardiac muscle PP2A (Gibco-BRL, Gaithersburg, Md.) is measured in 96-well microtiter plates using the substrate fluorescein diphosphate as follows. […] Fluorescence emission from the product is measured spectrofluorometrically, for example with Perseptive Biosystems Cytofluor II (Framingham, Mass.) (excitation filter, 485 nm; emission filter, 530 nm). The rate of increase in absorbance due to formation of dephosphorylated substrate is proportional to phosphatase activity. Thus, decreased absorbance relative to control samples provides a measure of the ability of the present compounds to inhibit the phosphatase.
The activity of the catalytic subunit of bovine cardiac muscle PP2A (Gibco-BRL, Gaithersburg, Md.) was measured with fluorescein diphosphate (Molecular Probes, Inc., Eugene, Oreg.) as a substrate in 96-well microtiter plates. […]

In the next experiment the test system is Recombinant human CDC25B. Description: CDC25B phosphatase assay, GST fusion protein, fluorescein diphosphate. Conditions: none = 100; 1 hour preincubation; concentration not given (0.3-100 μM tested). The format is biochemical. The method, then:
The compounds of the present invention are also capable of inhibiting dual specificity phosphatases, for example CDC25A and CDC25B. Phosphatases CDC25A and CDC25B are disclosed in U.S. Pat. No. 5,441,880. Inhibition of dual specificity phosphatases is defined herein as inhibition of the activity of CDC25A and/or CDC25B at a concentration of 100 μM of the inhibitor compound. In a preferred embodiment, the activity of the phosphatase is inhibited by at least 10%. In more preferred embodiments, the activity of the phophatase is inhibited by at least 25%, or even more preferably, by at least 50%. The ability of the compounds of the present invention to inhibit the phosphatases can be determined by measuring the effect of the compounds on the ability of CDC25 or CDC25B to dephosphorylate a substrate. Appropriate methods are known to those of ordinary skill in the art, and include, for example, calorimetric assays. A suitable assay is described in U.S. Pat. No. 5,441,880, the disclosure of which is incorporated herein by reference. […] The assay may be performed as a rapid calorimetric microtitration plate assay.
Compounds 1a-1r were assessed for ability to inhibit CDC25A and CDC25B activity. Recombinant human CDC25A and CDC25B were obtained as a glutahione-S-transferase (GST) fusion protein using human cDNA and standard molecular biological methods. The cDNA constructs are in a plasmid that is expressed in E. coli under the control of isopropyl-beta-D-[…] (IPTG). The bacterial pellet was disrupted by sonication, and centrifuged at 10,000×g. Using glutathione-agarose beads, the fusion protein was purified from postmicrosomal supernant fraction as described by Baratte et al. (1992) Anticancer Res. 12: 873-880. Phosphatase activity was assayed with a spectrofluorimeter under the following conditions: 1 unit (1 U=amount of protein that induces 33 fluoresence units/minute of product) of fusion protein in a final incubation mixture (150 μL) comprised of 25 mM Tris (pH=8.0), 5 mM EDTA, 33 μg/ml BSA, and 20 μM fluorescein diphosphate in 96-well microtiter plates. Plates were preincubated for 1 hour with 0 (control), 0.3, 1, 3, 10, 30, 100 μM compounds at room temperature. After the 1 hour incubation at room temperature, fluorescence of the fluorescein product (Ex. 485 nm; Em. 530 nm) were measured with a Biosystems Cytofluor II (Framingham, Mass.).

The subject of experiment [5] is human MDA-MB-231 breast cancer cells. Description: Antiproliferative activity, tetrazolium reduction assay (Lazo method), 72 h. Type of experiment: cell-based. Conditions: MDA-MB-231, 72 h. The text has this: The ability of the compounds of the present invention to inhibit proliferation can be assessed by methods known to those of ordinary skill in the art. For example, proliferating cells can be contacted with a compound of the invention, and cell numbers determined. A reduction in cell number in treated versus untreated cells provides a measure of the ability of the present compounds to inhibit proliferation. In a preferred embodiment the cells to be treated are cancer cells, for example breast cancer cells such as the CDC25B+ breast cancer cells MDA-MB-231, which are available from the American Type Culture Collection (Accession No. HTB-26). The antiproliferative activity of the present compounds can also be measured by the assay described by Lazo et al. (1995) J. Biol. Chem. 270: 5506, the disclosure of which is incorporated herein by reference. The microtiter-based calorimetric assay is based upon the reduction of 3-[4,5-dimethylthiazol-2-yl]-2,5-diphenyl tetrazolium bromide by living cells, and permits evaluation of the cytostatic or cytotoxic actions of large numbers of compounds quickly in mouse embryonic fibroblasts and human CDC25B+ breast cancer cells. Briefly, exponentially growing CDC25B+ MDA-MB-231 cells are treated continuously with from 0 to 100 μM of a compound of the invention, and cell proliferation is determined calorimetrically after 72 hours by assessing the ability of the cells to reduce 3-[4,5-dimethylthiazol-2-yl]-2,5-diphenyl tetrazolium bromide.
Human MDA-MB-231 breast carcinoma cells were obtained from the American Type Culture Collection at passage 28 and were maintained for no longer than 20 passages. The cells were grown in RPMI-1640 supplemented with 1% penicillin (100 μg/mL) and streptomycin (100 μg/mL), 1% L-glutamate,and 10% fetal bovine serum in a humidified incubator at 37° C. under 5% CO2 in air. Cells were routinely found free of mycoplasma. To remove cells from the monolayer for passage or flow cytometry, cells were washed two times with phosphate buffer and briefly (<3 min) treated with 0.05% trypsin/2 mM EDTA at room temperature. After the addition of at least two volumes of growth medium containing 10W fetal bovine serum, the cells were centrifuged at 1,000×g for 5 min. Compounds were made into stock solutions using DMSO, and stored at -20° C. All compounds and controls were added to obtain a final concentration of 0.1-0.2% (v/v) of the final solution for experiments.
The antiproliferative activity of the compounds was determined by the method of Lazo et al. (1995) J. Biol. Chem. 270:5506. Briefly, cells (6.5×10^3 cells/cm^2) were plated in 96 well flat bottom plates for the cytotoxicity studies and incubated at 37° C. for 48 h. The plating medium was aspirated off 96 well plates and 200 μL of growth medium containing the compound was added per well. Compounds were used at from O to the highest available concentration which ranged from 30 to 100 μM. Plates were incubated for 72 h, and then washed 4× with serum free medium. After washing, 50 μL of 3-[4,5-dimethylthiazol-2-yl]-2,5-diphenyl tetrazolium bromide solution (2 mg/mL) was added to each well, followed by 150 μL of complete growth medium. Plates were then incubated an additional 4 h at 37° C. The solution was aspirated off, 200 μL of DMSO added, and the plates were shaken for 30 min at room temperature. Absorbance at 540 nm was determined with a Titertek Multiskan Plus plate reader. Biologically active compounds were tested at least 3 independent times.

In experiment [6] the test system is PP1. Conditions: cited from earlier work.
The target of experiment [7] is PP2A (Homo sapiens, UniProt P67775). Conditions: background, literature, cited from earlier work.
The test system of experiment [8] is PP3. Conditions: background, literature; cited from earlier work.
[9] abbreviates: somewhat selective but weak inhibitors.

Where two headings read alike, the source gives them in different places.

Chain of PP2A (Homo sapiens, UniProt P67775) (P67775 whole entry): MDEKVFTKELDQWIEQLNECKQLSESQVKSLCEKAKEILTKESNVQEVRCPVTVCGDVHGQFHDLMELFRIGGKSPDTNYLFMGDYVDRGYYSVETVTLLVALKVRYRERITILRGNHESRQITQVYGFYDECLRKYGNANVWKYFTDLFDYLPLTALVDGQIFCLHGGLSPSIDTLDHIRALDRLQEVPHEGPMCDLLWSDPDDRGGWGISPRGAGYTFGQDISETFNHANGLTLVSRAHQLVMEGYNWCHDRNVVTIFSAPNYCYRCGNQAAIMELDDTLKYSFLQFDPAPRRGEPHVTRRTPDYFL
T1 sequence (P67774 whole entry): as the sequence (P67775 whole entry) above
Chain of PP2A (Bos taurus, UniProt P67774) (P67774 whole entry): as the sequence (P67775 whole entry) above

What is called inhibition is the share of the control response that was lost under treatment. With `CCCCCCCCCC(=O)NC(CCC(=O)N(C)CCNC(=O)c1nc(-c2ccccc2)oc1-c1ccccc1)C(=O)O` (stereo not drawn) [Compound 1d], in the experiment on PP1 [1], the “PP1 remaining activity, percent of control” value stood at 53%. Further, the PP2A remaining activity, % of control at 100 µM at PP2A [2] was determined as 69%. In addition, the “PP3 remaining activity, percent of control” value in the experiment with PP3 [3] was 33%. In addition, the inhibition at 100 µM in experiment [4] (100 μM) was 50%. For the same compound, the “CDC25B activity remaining, percent of control” value in the experiment on Recombinant human CDC25B is on record as 91%.
Regarding `CCCCCCN(CCNC(=O)c1nc(-c2ccccc2)oc1C)C(=O)CCC(NC(=O)CCc1ccccc1)C(=O)O` (stereo not drawn) [Compound 1h], the “PP1 remaining activity, percent of control” value with PP1 [1] amounted to 63%. The PP2A remaining activity, % of control at 100 µM at PP2A [2] amounted to 88%. Further, the “PP3 remaining activity, percent of control” value in the experiment with PP3 [3] was found to be 17%. Moreover, the “CDC25B activity remaining, percent of control” value in the experiment on Recombinant human CDC25B amounted to 69%. Moreover, the IC50 in experiment [5] (Homo sapiens, MDA-MB-231, 72 h continuous treatment, read-out: concentration causing 50% growth inhibition) worked out at 20000 nM. Moreover, the “concentration dependence of growth inhibition (in words)” value in [5] is recorded as “no further cytotoxicity at higher drug concentrations”.
With `C/C=C1/C(=O)N[C@@H](C(=O)O)[C@H](C)C(=O)N[C@@H](C(C)C)C(=O)N[C@@H](/C=C/C(C)=C/[C@H](C)[C@H](Cc2ccccc2)OC)[C@H](C)C(=O)N[C@@H](C(=O)O)CCC(=O)N1C` [Motuporin], in the experiment on PP1 [6], the IC50 is less than 1 nM.
Take `CO[C@H]([C@H](O)CC(=O)[C@@H](C)[C@@H](O)CC[C@@H](C)[C@@H]1O[C@]2(CC[C@@H](C)[C@H](CC[C@H](C)C(C)=O)O2)CC[C@@H]1C)[C@H](OC(=O)C[C@@H](O)C1=C(C)C(=O)OC1=O)C(C)C` [Tautomycin]: the IC50 is roughly 15 nM in the experiment with PP1 [6] (background, literature); roughly 15 nM on PP2A [7]; roughly 15 nM in the experiment on PP3 [8].
With `COC[C@@H]([C@H](O)[C@H](O)C(=O)NCC[C@H](C)c1nc(/C=C/C[C@@H]2O[C@]3(C[C@@H](O)[C@@H]2C)O[C@H]([C@H](C[C@H](O)[C@H](C)[C@H](O)[C@H](C)/C=C(C)/C(C)=C/C=C/C(C)=C\C#N)OC)[C@H](OP(=O)(O)O)C3(C)C)co1)N(C)C` [calyculin A], the “inhibition of PP2A activity (in words)” value in experiment [4] (10 nM) is recorded as “inhibited PP2A activity”. The IC50 is roughly 0.3 nM in the experiment on PP1 [6] (background, literature); roughly 0.3 nM at PP2A [7]; roughly 0.3 nM in the experiment with PP3 [8].
In the case of `C[C@@]12C(=O)OC(=O)[C@]1(C)[C@H]1CC[C@@H]2O1` [cantharidine], the IC50 at PP2A [7] (setting [9]) was 160 to 10000 nM.
As for thyrsiferal-23-acetate, the IC50 on PP2A [7] (setting [9]) was 160 to 10000 nM.
